Legend:
[1] = test system: young domestic pigs actively sensitized with an antigen (extract from Ascaris suum); assay: Allergen-induced nasal secretion (rhinorrhea) in Ascaris-sensitized young domestic pigs; assay type: in vivo; conditions: for Inhibition of nasal secretion: intranasal Ascaris allergen challenge, pigs
Description: In vivo investigations were carried out on young domestic pigs actively sensitized with an antigen (extract from Ascaris suum). Three weeks later, they were exposed to allergen challenge, which was carried out by intranasal instillation of the Ascaris extract. This local intranasal allergen challenge leads to a very great increase in the nasal secretion (rhinorrhea). The amount of secretion was determined gravimetrically.

TNFα release = assay: LPS-induced TNFα release in diluted human blood (ELISA); assay type: cell-based
Description: In vitro, investigations on the influencing of the release of the proinflammatory cytokine TNFα in human blood of various donors diluted 1:5 were carried out. The stimulation was effected using lipopolysaccharide (LPS) from Salmonella abortus equi (10 μg/ml) over the course of 24 h at 37° C. and 5% CO2 in an incubator. The TNFα release was determined using an ELISA, based on antibodies from Pharmingen.

[2] = cited from earlier work

CN1CCCC(n2nc(Cc3ccc(Cl)cc3)c3ccccc3c2=O)CC1 (stereo not drawn) [Azelastine]
Inhibition of nasal secretion ([1]; azelastine 10 μg/nostril): 15%
Inhibition of the allergically induced nasal hypersecretion (in words) ([1]; used alone at 10 or 20 μg/nostril): only marginal inhibition
LPS-induced TNFα release (in words) (TNFα release; administered alone): remains virtually unchanged
inhibition at 10 µM (TNFα release; azelastine 10 μmol/l, human blood diluted 1:5, LPS 10 μg/ml, 24 h): 2%

CCOC(=O)O[C@]1(C(=O)OCCl)CC[C@H]2[C@@H]3CCC4=CC(=O)C=C[C@]4(C)[C@H]3[C@@H](O)C[C@@]21C [Loteprednol etabonate]
Water solubility [2]: virtually water-insoluble

CCOC(=O)O[C@]1(C(=O)OCCl)CC[C@H]2[C@@H]3CCC4=CC(=O)C=C[C@]4(C)[C@H]3[C@@H](O)C[C@@]21C [Loteprednol]
Inhibition of nasal secretion ([1]; loteprednol 20 μg/nostril): 8%
inhibition at 0.001 µM (TNFα release; loteprednol 0.001 μmol/l, human blood diluted 1:5, LPS 10 μg/ml, 24 h): 1%
inhibition at 0.01 µM (TNFα release; loteprednol 0.01 μmol/l, human blood diluted 1:5, LPS 10 μg/ml, 24 h): 2%
inhibition at 0.03 µM (TNFα release; loteprednol 0.03 μmol/l, human blood diluted 1:5, LPS 10 μg/ml, 24 h): 8%

From patent US7022687B1, “Combination of loteprednol and antihistamines” (Asta Medica AG, priority 1999, dated 2006)
